Measured values: patent US9149536B2, “Conjugated antimicrobial agents” (priority 2009, dated 2015)
Values after ≈ are worked out from the molar mass of the structure shown. Like-named read-outs stand apart in the source and are kept apart here.

Columns and labels:
[1] = tested on: B. subtilis ATCC 6633; assay: MIC, double-microdilution, B. subtilis ATCC 6633; type: cell-based; conditions: for MIC: Bacillus subtilis, ATCC6633
[2] = tested on: E. coli AG100A; assay: MIC, double-microdilution, E. coli AG100A; type: cell-based, Escherichia coli; conditions: for MIC E. coli AG100A: Table 4, kanamycin resistant, APH(3′)-I
[3] = tested on: E. coli ATCC 25922; assay: MIC, double-microdilution, E. coli ATCC 25922; type: cell-based, Escherichia coli; conditions: for MIC: Escherichia coli, ATCC25922
[4] = tested on: MRSA ATCC 43300; assay: microbe, parasite or virus in culture; type: cell-based, S. aureus; conditions: Table 4
[5] = tested on: E. coli R477-100; assay: MIC, double-microdilution, E. coli R477-100; type: cell-based, Escherichia coli; conditions: for MIC E. coli R477-100: Table 4; for MIC: Escherichia coli
[6] = tested on: E. coli BL21/pETSACG1; assay: microbe, parasite or virus in culture; type: cell-based; conditions: for MIC ratio BL21/pETSACG1 to BL21: MIC resistant strain divided by MIC background strain; for MIC BL21/pETSACG1: expressed enzyme APH(3′)-IIIa
Procedure: (§1) For this purpose, exemplary conjugates, according to some embodiments of the present invention, were tested against five isogenic E. coli strains. E. coli (pSF815) and E. coli (pET9d) are laboratory resistant strains derived by transformation of E. coli XL1 blue (background strain) with the pSF815 and pET9d plasmids, respectively. […] The last two isogenic strains used were E. coli BL21 (background strain) and E. coli (pETSACG1). […] These three enzymes are among the most prevalent modes of resistance found in aminoglycosides resistance strains.
(§2) The MIC ratios were calculated by dividing the MIC value against resistant strain to that against the respective background strain.

[7] = tested on: E. coli XL1 blue/pET9d; assay: microbe, parasite or virus in culture; type: cell-based; conditions: for MIC ratio XL1 blue/pET9d to XL1 blue: MIC resistant strain divided by MIC background strain; for MIC XL1 blue/pET9d: expressed enzyme APH(3′)-Ia
Procedure: as §1, §2

[8] = tested on: E. coli XL1 blue; assay: microbe, parasite or virus in culture; type: cell-based; conditions: background strain
Procedure: as §1, §2

[9] = tested on: E. coli XL1 blue/pSF815; assay: microbe, parasite or virus in culture; type: cell-based; conditions: for MIC ratio XL1 blue/pSF815 to XL1 blue: MIC resistant strain divided by MIC background strain; for MIC XL1 blue/pSF815: expressed enzyme AAC(6′)-APH(2″)
Procedure: as §1, §2

[10] = tested on: E. coli BL21; assay: microbe, parasite or virus in culture; type: cell-based; conditions: background strain
Procedure: as §1, §2

[11] = tested on: E. coli AG100B; assay: MIC, double-microdilution, E. coli AG100B; type: cell-based, Escherichia coli; conditions: for MIC E. coli AG100B: Table 4; for MIC: Escherichia coli, AG100B
From the text: AG100B and AG100A are two kanamycin resistant Escherichia coli strains expressing APH(3′)-I aminoglycoside resistance enzyme.

[12] = target: T1, APH(3′)-IIIa enzyme (Enterococcus faecalis, UniProt P0A3Y5); type: biochemical
T1 construct: made in house; host or cells: E. coli BL21 carrying pETSACG1 (inferred)
T1 sequence (P0A3Y5 whole entry): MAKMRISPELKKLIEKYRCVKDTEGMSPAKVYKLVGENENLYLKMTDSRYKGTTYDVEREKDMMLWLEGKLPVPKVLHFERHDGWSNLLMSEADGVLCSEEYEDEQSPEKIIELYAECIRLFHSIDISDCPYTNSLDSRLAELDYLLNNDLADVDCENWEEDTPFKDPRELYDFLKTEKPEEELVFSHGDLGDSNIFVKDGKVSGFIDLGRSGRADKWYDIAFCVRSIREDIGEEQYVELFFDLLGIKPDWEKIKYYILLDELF

[13] = target: E. coli DNA gyrase (Escherichia coli, UniProt P0AES4+P0AES6); conditions: for IC50 fold superior than that of Cipro in DNA gyrase assay: general statements name DNA gyrase and TopoIV together; for IC50: read-out: DNA gyrase IC50, supercoiling assay, relaxed pBR322
Sequence of E. coli DNA gyrase (P0AES4 whole entry, one chain of several): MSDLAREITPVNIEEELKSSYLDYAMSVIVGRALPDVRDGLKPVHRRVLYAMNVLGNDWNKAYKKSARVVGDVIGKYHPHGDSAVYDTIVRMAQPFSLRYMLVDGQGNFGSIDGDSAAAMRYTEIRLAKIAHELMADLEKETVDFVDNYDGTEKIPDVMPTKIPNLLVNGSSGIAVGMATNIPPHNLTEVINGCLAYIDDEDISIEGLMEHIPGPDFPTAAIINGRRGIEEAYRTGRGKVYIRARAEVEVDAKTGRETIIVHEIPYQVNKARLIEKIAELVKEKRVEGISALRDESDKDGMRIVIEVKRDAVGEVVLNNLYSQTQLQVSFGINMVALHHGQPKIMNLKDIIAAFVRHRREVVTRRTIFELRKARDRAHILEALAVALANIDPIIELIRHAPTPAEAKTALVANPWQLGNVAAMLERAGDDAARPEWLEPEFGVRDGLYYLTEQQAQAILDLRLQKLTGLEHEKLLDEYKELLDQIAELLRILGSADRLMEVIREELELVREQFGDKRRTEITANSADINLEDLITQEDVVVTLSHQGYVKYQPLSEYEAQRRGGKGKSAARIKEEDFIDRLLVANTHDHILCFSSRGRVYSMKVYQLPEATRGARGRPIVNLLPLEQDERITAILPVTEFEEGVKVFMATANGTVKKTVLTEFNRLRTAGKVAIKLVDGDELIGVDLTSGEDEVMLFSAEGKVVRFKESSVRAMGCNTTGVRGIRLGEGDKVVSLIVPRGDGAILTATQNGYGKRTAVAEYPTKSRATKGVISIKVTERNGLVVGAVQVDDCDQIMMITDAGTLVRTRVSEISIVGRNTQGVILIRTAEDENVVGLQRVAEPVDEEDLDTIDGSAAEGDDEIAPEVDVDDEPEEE

[14] = target: T2, E. coli TopoIV (Escherichia coli, UniProt P0AFI2+P20083); assay: TopoIV relaxation assay; type: biochemical; conditions: for IC50: relaxation assay, supercoiled pBR322
T2 construct: purchased Inspiralis Ltd
T2 sequence (P0AFI2 whole entry): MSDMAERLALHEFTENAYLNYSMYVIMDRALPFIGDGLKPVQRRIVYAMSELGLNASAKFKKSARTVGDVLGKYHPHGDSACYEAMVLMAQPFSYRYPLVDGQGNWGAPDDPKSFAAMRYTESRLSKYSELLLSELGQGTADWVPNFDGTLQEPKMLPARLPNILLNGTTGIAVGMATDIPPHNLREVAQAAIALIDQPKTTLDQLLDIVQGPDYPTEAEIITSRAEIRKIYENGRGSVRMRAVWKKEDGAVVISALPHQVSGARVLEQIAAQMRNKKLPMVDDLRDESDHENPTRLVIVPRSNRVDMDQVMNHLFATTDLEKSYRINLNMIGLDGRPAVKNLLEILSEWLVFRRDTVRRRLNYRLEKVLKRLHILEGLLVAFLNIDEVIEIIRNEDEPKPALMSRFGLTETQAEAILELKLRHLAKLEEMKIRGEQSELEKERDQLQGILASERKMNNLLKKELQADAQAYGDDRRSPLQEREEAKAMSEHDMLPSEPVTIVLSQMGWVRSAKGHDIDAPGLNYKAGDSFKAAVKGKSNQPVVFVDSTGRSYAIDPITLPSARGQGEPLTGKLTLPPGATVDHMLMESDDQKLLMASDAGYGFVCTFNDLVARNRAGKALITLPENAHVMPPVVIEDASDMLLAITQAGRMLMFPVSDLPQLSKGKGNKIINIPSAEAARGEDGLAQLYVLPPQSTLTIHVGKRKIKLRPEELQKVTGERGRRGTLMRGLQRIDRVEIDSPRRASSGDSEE
T2 sequence (P20083 whole entry): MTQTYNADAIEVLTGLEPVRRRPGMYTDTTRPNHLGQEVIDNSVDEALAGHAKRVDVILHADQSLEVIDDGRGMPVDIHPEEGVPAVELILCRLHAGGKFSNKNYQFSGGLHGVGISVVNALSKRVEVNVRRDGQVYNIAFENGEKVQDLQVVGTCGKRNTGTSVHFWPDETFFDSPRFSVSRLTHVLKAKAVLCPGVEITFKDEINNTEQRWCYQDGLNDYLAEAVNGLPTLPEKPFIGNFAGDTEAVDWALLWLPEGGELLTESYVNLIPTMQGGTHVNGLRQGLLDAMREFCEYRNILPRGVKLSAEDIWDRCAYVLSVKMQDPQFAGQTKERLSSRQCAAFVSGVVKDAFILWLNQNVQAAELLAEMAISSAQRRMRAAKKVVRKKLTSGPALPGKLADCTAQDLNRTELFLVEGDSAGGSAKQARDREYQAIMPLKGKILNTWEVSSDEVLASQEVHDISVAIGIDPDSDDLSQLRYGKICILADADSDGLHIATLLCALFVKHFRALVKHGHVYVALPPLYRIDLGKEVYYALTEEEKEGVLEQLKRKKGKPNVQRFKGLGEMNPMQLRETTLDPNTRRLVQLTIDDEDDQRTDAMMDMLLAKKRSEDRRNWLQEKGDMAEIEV
Procedure: DNA relaxation activity was assayed with supercoiled pBR322 DNA as a substrate (Inspiralis Ltd) according to the manufacturer's protocol. The standard reaction mixture (20 μl) contained 40 mM HEPES-KOH pH 7.6, 100 mM potassium glutamate, 10 mM Mg(OAc)2, 10 mM dithiothreitol, 1 mM ATP, 50 μg/ml albumin, 5 ng/μl […] pBR322, and TopoIV protein. The reaction mixture was incubated at 37° C. for 30 minutes, and then was terminated by addition of 2 μl 0.5 M EDTA, 3.5 μl loading dye and 20 μl chloroform/isoamyl alcohol (24:1) mixture. […] One unit of relaxation activity was defined as the amount of TopoIV required to relax 0.1 μg of plasmid in 30 minutes.
(§3) Relaxation assays were conducted with E. coli TopoIV.

[15] = tested on: bacterial protein synthesis; assay: In vitro coupled transcription/translation assay, E. coli S30 extract; type: biochemical; conditions: luciferase readout
Procedure: Protein translation inhibition by the different compounds was quantified in a coupled transcription/translation assay by using E. coli S30 extracts for circular DNA with the pBEST/uc plasmid (Promega), according to the manufacturer's protocol.
Translation reactions (25 μl) that contained variable concentrations of the tested compound were incubated at 37° C. for 60 minutes, cooled on ice for 5 minutes, and diluted with a dilution reagent (tris-phosphate buffer (25 mM, pH 7.8), DTT (2 mM), 1,2-diaminocyclohexanetetraacetate (2 mM), glycerol (10%), Triton X-100 (1%) and BSA (1 mg/ml)) into 96-well plates. The luminescence was measured immediately after the addition of the Luciferase Assay Reagent (50 μl; Promega), and the light emission was recorded with a Victor3™ Plate Reader (Perkin-Elmer). The concentration of half-maximal inhibition (IC50) was obtained from fitting concentration-response curves to the data of at least two independent experiments by using Grafit 5 software (Leatherbarrow, R. J. Erithacus Software Ltd: Horley, U.K., 2001).
as §3

[16] = tested on: E. coli ATCC 35218; assay: microbe, parasite or virus in culture; type: cell-based; conditions: Escherichia coli, ATCC35218, read-out: MIC 15th passage, E.coli ATCC 35218
Procedure: (§4) In parallel, MIC evolution during these subcultures was compared concomitantly with each new generation, using bacteria harvested from control wells (wells cultured without antimicrobial agent from the previous generation). The relative MIC was calculated for each experiment from the ratio of MIC obtained for a given subculture to that obtained for first-time exposure.

[17] = tested on: B. subtilis ATCC 6633; assay: microbe, parasite or virus in culture; type: cell-based; conditions: Bacillus subtilis, ATCC6633, read-out: MIC 15th passage, B.subtilis ATCC 6633
Procedure: as §4

[18] = compound as substrate of APH(3′)-IIIa

| SMILES | MIC B. subtilis ATCC 6633 ([1]; Table 4) | MIC E. coli AG100A [2] | MIC E. coli ATCC 25922 ([3]; Table 4) | MIC MRSA ATCC 43300 [4] | MIC E. coli R477-100 [5] | MIC ratio BL21/pETSACG1 to BL21 [6] | MIC BL21/pETSACG1 [6] | MIC ratio XL1 blue/pET9d to XL1 blue [7] | MIC XL1 blue/pET9d [7] | MIC XL1 blue [8] | MIC ratio XL1 blue/pSF815 to XL1 blue [9] | MIC XL1 blue/pSF815 [9] | MIC BL21 [10] | MIC E. coli AG100B ([11]; kanamycin resistant, APH(3′)-I) | IC50 fold superior than that of Cipro in DNA gyrase assay [13] | IC50 [13] | IC50 fold superior than Cipro in TopoIV assay [14] | IC50 [14] | IC50 [15] | other results |
| --- | --- | --- | --- | --- | --- | --- | --- | --- | --- | --- | --- | --- | --- | --- | --- | --- | --- | --- | --- | --- |
| NCC1OC(OC2C(C(=O)NCc3cn(CC(O)CN4CCN(c5cc6c(cc5F)c(=O)c(C(=O)O)cn6C5CC5)CC4)nn3)OC(OC3C(O)C(N)CC(N)C3OC3OC(CN)C(O)C(O)C3N)C2O)C(N)C(O)C1O (centres unmarked) [Compound 1m, N-((1-(2-hydroxy-3-(ciprofloxacin)propyl)-1H-1,2,3-triazol-4-yl)-5″-methyl)neomycin carboxamide] | 3 µg/mL (≈ 2.74 µM) | 0.75 µg/mL (≈ 0.684 µM) | 3 µg/mL (≈ 2.74 µM) | 12 µg/mL (≈ 10.9 µM) | 6 µg/mL (≈ 5.47 µM) | 1 | 0.2 μg/ml | 2 | 12 μg/ml | 6 µg/mL (≈ 5.47 µM) | 8 | 48 μg/ml | 0.2 µg/mL (≈ 0.182 µM) | 12 µg/mL (≈ 10.9 µM) | – | – | – | – | – | MIC against E. coli (pETSACG1) ([6]; molar expression of 0.2 μg/ml): 5.5 μM; Km [12]: 87 µM; Km [12, 18]: 86.8 ± 8.9 µM; kcat [12, 18]: 2.5 ± 0.1 s⁻¹ |
| NCC1OC(OC2C(C(=O)NCc3cn(Cc4ccc(CN5CCN(c6cc7c(cc6F)c(=O)c(C(=O)O)cn7C6CC6)CC5)cc4)nn3)OC(OC3C(O)C(N)CC(N)C3OC3OC(CN)C(O)C(O)C3N)C2O)C(N)C(O)C1O (centres unmarked) [Compound 1p, N-((1-(4-((ciprofloxacin)methyl)benzyl)-1H-1,2,3-triazol-4-yl)-5″-methyl)neomycin carboxamide] | 3 µg/mL (≈ 2.63 µM) | 1.5 µg/mL (≈ 1.31 µM) | 6 µg/mL (≈ 5.25 µM) | 3 µg/mL (≈ 2.63 µM) | 6 µg/mL (≈ 5.25 µM) | 1 | 0.4 μg/ml | 1 | 6 μg/ml | 6 µg/mL (≈ 5.25 µM) | 1 | 6 μg/ml | 0.4 µg/mL (≈ 0.35 µM) | 12 µg/mL (≈ 10.5 µM) | – | – | – | – | – | – |
| NCC1OC(OC2C(C(=O)NCc3cn(Cc4cccc(CN5CCN(c6cc7c(cc6F)c(=O)c(C(=O)O)cn7C6CC6)CC5)c4)nn3)OC(OC3C(O)C(N)CC(N)C3OC3OC(CN)C(O)C(O)C3N)C2O)C(N)C(O)C1O (centres unmarked) [Compound 1o, N-((1-(3-((ciprofloxacin)methyl)benzyl)-1H-1,2,3-triazol-4-yl)-5″-methyl)neomycin carboxamide] | 3 µg/mL (≈ 2.63 µM) | 0.75 µg/mL (≈ 0.657 µM) | 6 µg/mL (≈ 5.25 µM) | 6 µg/mL (≈ 5.25 µM) | 6 µg/mL (≈ 5.25 µM) | 1 | 0.4 μg/ml | 1 | 6 μg/ml | 6 µg/mL (≈ 5.25 µM) | 4 | 24 μg/ml | 0.4 µg/mL (≈ 0.35 µM) | 12 µg/mL (≈ 10.5 µM) | – | – | – | – | – | – |
| NCC1OC(OC2C(C(=O)Nc3ccc(-c4cn(CC(O)CN5CCN(c6cc7c(cc6F)c(=O)c(C(=O)O)cn7C6CC6)CC5)nn4)cc3)OC(OC3C(O)C(N)CC(N)C3OC3OC(CN)C(O)C(O)C3N)C2O)C(N)C(O)C1O (centres unmarked) [Compound 1f, N-(4-(1-(2-hydroxy-3-(ciprofloxacin)propyl)-1H-1,2,3-triazol-4-yl)-5″-phenyl)neomycin carboxamide] | 6 µg/mL (≈ 5.18 µM) | 0.75 µg/mL (≈ 0.648 µM) | 3 µg/mL (≈ 2.59 µM) | 24 µg/mL (≈ 20.7 µM) | 6 µg/mL (≈ 5.18 µM) | – | – | – | – | – | – | – | – | 6 µg/mL (≈ 5.18 µM) | 18 fold | 73 ± 5 nM | 19 fold | 580 ± 40 nM | 2200 ± 600 nM | – |
| NCC1OC(OC2C(COCc3cn(CCN4CCN(c5cc6c(cc5F)c(=O)c(C(=O)O)cn6C5CC5)CC4)nn3)OC(OC3C(O)C(N)CC(N)C3OC3OC(CN)C(O)C(O)C3N)C2O)C(N)C(O)C1O (centres unmarked) [Compound 1q, 4-((5″-neomycinmethoxy)methyl)-1-(2-(ciprofloxacin)ethyl)-1H-1,2,3-triazole] | 0.75 µg/mL (≈ 0.712 µM) | 0.38 µg/mL (≈ 0.361 µM) | 3 µg/mL (≈ 2.85 µM) | 6 µg/mL (≈ 5.7 µM) | 3 µg/mL (≈ 2.85 µM) | 1 | 0.2 μg/ml | 4 | 12 μg/ml | 3 µg/mL (≈ 2.85 µM) | 4 | 12 μg/ml | 0.2 µg/mL (≈ 0.19 µM) | 12 µg/mL (≈ 11.4 µM) | 32 fold | 41 ± 9 nM | 1.4 fold | 7900 ± 250 nM | 18100 ± 4900 nM | fold more potent than NeoB against E. coli AG100A ([2]; from MIC): 253 fold; fold more potent than NeoB against E. coli AG100B ([11]; from MIC): 32 fold |
| O=C(O)c1cn(C2CC2)c2cc(N3CCNCC3)c(F)cc2c1=O [Cipro, ciprofloxacin, reference compound] | – | – | – | 0.20 µg/mL (≈ 0.604 µM) | – | – | – | – | – | – | – | – | – | – | – | – | – | – | – | MIC ([1]; Table 4, read-out: MIC B. subtilis ATCC 6633): 0.02 µg/mL (≈ 0.0604 µM); MIC ([1]; Table 6, read-out: MIC Bacillus subtilis): 0.023 µg/mL (≈ 0.0694 µM); MIC ([2]; Escherichia coli, AG100A, read-out: MIC E. coli AG100A, Table 6): < 0.003 µg/mL; MIC ([3]; Table 4, read-out: MIC E. coli ATCC 25922): 0.02 µg/mL (≈ 0.0604 µM); MIC ([3]; Table 6, read-out: MIC E. coli 25922): 0.023 µg/mL (≈ 0.0694 µM); MIC ([4]; Staphylococcus aureus, read-out: MIC MRSA ATCC 43300): 0.2 µg/mL (≈ 0.604 µM); MIC [16]: 0.75 µg/mL (≈ 2.26 µM); MIC [17]: 0.75 µg/mL (≈ 2.26 µM); MIC ([5]; R477100, read-out: MIC E. Coli R477-100): 0.023 µg/mL (≈ 0.0694 µM); MIC ([5]; R477100, read-out: MIC E. coli R477-100): 0.02 µg/mL (≈ 0.0604 µM); MIC ([11]; read-out: MIC E. coli AG100B, Table 4, kanamycin resistant, APH(3′)-I): 0.05 µg/mL (≈ 0.151 µM); MIC ([11]; read-out: MIC E. coli AG100B, Table 6): 0.06 µg/mL (≈ 0.181 µM); Protein synthesis IC50 [15]: inactive |
